From US9682983B2, “BMP inhibitors and methods of use thereof” (THE BRIGHAM AND WOMEN'S HOSPITAL, INC., priority 2013, dated 2017)

The compounds below were run against human ALK2 (Homo sapiens (Human), UniProt Q04771) (assay: LANCE Ultra ULight enzymatic assay (FOP Enzymatic Assay), ALK2). Conditions: not given.
Assay type: biochemical

Chain of human ALK2 (Q04771 21-509): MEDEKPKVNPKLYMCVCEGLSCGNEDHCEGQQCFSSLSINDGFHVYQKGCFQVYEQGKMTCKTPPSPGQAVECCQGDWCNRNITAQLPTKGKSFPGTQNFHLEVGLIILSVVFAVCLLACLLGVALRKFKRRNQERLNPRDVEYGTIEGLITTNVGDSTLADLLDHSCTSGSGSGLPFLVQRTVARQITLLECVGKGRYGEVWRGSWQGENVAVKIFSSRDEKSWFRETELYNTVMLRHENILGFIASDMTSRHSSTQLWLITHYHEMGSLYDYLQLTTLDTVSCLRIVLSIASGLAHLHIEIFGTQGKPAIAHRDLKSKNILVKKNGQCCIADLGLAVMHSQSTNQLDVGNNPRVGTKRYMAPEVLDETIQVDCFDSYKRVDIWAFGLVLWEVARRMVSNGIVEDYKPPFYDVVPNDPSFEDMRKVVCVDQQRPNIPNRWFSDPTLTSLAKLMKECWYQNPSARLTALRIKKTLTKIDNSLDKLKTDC

Structure (SMILES) | IC50
[2H]c1cc(-c2cnn3cc(-c4ccc(N5CCNCC5)nc4)cnc23)c2ccccc2n1 [compound 17, 4-(6-(6-(piperazin-1-yl)pyridin-3-yl)pyrazolo[1,5-a]pyrimidin-3-yl)quinoline] | 40 nM

Same assay, conditions: 10 μM ATP

Structure (SMILES) | IC50
[2H]c1ccc2c(-c3cnn4cc(-c5ccc(OC6CCNCC6)cn5)cnc34)cccc2n1 [Compound 61, 5-(6-(5-(piperidin-4-yloxy)pyridin-2-yl)pyrazolo[1,5-a]pyrimidin-3-yl)-2-^2H-quinoline] | 41 nM
[2H]c1ccc2c(-c3cnn4cc(-c5ccc(O[C@H]6CCNC6)cn5)cnc34)cccc2n1 [Compound 65, (S)-5-(6-(5-(pyrrolidin-3-yloxy)pyridin-2-yl)pyrazolo[1,5-a]pyrimidin-3-yl)-2-^2H-quinoline] | 34 nM
[2H]c1ccc2c(-c3cnn4cc(-c5ccc(OC(C)(C)CN6CCCCC6)cn5)cnc34)cccc2n1 [Compound 57, 5-(6-(5-((2-methyl-1-(piperidin-1-yl)propan-2-yl)oxy)pyridin-2-yl)pyrazolo[1,5-a]pyrimidin-3-yl)-2-^2H-quinoline] | 28 nM

Same assay, conditions: read-out: ALK2 IC50 (nM) at 10 μM ATP; 10 μM ATP

Structure (SMILES) | IC50
COc1ccc2c(-c3cnn4cc(-c5ccc(N6[C@H](C)CNC[C@@H]6C)cc5)cnc34)cccc2n1 [Compound 67, 5-(6-(4-((2S,6R)-2,6-dimethylpiperazin-1-yl)phenyl)pyrazolo[1,5-a]pyrimidin-3-yl)-2-methoxyquinoline] | 157 nM
Clc1cc(-c2cnc3c(-c4ccnc5ccccc45)cnn3c2)ccc1N1CCNCC1 [Compound 35, 4-(6-(3-chloro-4-(piperazin-1-yl)phenyl)pyrazolo[1,5-a]pyrimidin-3-yl)quinoline] | 30 nM
Cc1cc(-c2cnn3cc(-c4ccc(N5[C@H](C)CNC[C@@H]5C)cc4)cnc23)c2ccccc2n1 [Compound 11, 4-(6-(4-((2R,6S)-2,6-dimethylpiperazin-1-yl)phenyl)pyrazolo[1,5-a]pyrimidin-3-yl)-2-methylquinoline] | 7.7 nM
c1cc(-c2cnn3cc(-c4ccc(N5CCNCC5)nc4)cnc23)c2cccnc2c1 [Compound 30, 5-(6-(6-(piperazin-1-yl)pyridin-3-yl)pyrazolo[1,5-a]pyrimidin-3-yl)quinoline] | 84 nM
CNCc1ccc2c(-c3cnn4cc(-c5ccc(N6CCNCC6)cc5)cnc34)ccnc2c1 [Compound 18, N-methyl-1-(4-(6-(4-(piperazin-1-yl)phenyl)pyrazolo[1,5-a]pyrimidin-3-yl)quinolin-7-yl)methanamine] | 906 nM
C(#Cc1cnc2c(-c3ccnc4ccccc34)cnn2c1)CN1CCNCC1 [Compound 4, 4-(6-(3-(piperazin-1-yl)prop-1-ynyl)pyrazolo[1,5-a]pyrimidin-3-yl)quinoline] | 68 nM
OCc1ccc2c(-c3cnn4cc(-c5ccc(N6CCNCC6)cc5)cnc34)ccnc2c1 [Compound 16, (4-(6-(4-(piperazin-1-yl)phenyl)pyrazolo[1,5-a]pyrimidin-3-yl)quinolin-7-yl)methanol] | 102 nM
OCc1cccc2c(-c3cnn4cc(-c5ccc(N6CCNCC6)cc5)cnc34)ccnc12 [Compound 24, (4-(6-(4-(piperazin-1-yl)phenyl)pyrazolo[1,5-a]pyrimidin-3-yl)quinolin-8-yl)methanol] | 62 nM
C[C@@H]1CNC[C@H](C)N1c1ccc(-c2cnc3c(-c4cccc5ncccc45)cnn3c2)cn1 [Compound 34] | 56 nM
Cc1ccc2c(-c3cnn4cc(-c5ccc(OC(C)(C)CN6CCCCC6)cn5)cnc34)cccc2n1 [Compound 58, 2-methyl-5-(6-(5-((2-methyl-1-(piperidin-1-yl)propan-2-yl)oxy)pyridin-2-yl)pyrazolo[1,5-a]pyrimidin-3-yl)quinoline] | 107 nM
Clc1cc(-c2cnc3c(-c4cccc5ncccc45)cnn3c2)ccc1N1CCNCC1 [Compound 36, 5-(6-(3-chloro-4-(piperazin-1-yl)phenyl)pyrazolo[1,5-a]pyrimidin-3-yl)quinoline] | 46 nM
O=C(O)c1cccc2c(-c3cnn4cc(-c5ccc(N6CCNCC6)cc5)cnc34)ccnc12 [Compound 22, 4-(6-(4-(piperazin-1-yl)phenyl)pyrazolo[1,5-a]pyrimidin-3-yl)quinoline-8-carboxylic acid] | 88 nM
NC(=O)c1cccc2c(-c3cnn4cc(-c5ccc(N6CCNCC6)cc5)cnc34)ccnc12 [Compound 23, 4-(6-(4-(piperazin-1-yl)phenyl)pyrazolo[1,5-a]pyrimidin-3-yl)quinoline-8-carboxamide] | 26 nM
Oc1cc(-c2cnn3cc(-c4ccc(N5CCNCC5)cc4)cnc23)c2ccccc2n1 [Compound 9, 4-(6-(4-(piperazin-1-yl)phenyl)pyrazolo[1,5-a]pyrimidin-3-yl)quinolin-2-ol] | 792 nM
N#Cc1cc(-c2cnc3c(-c4ccnc5ccccc45)cnn3c2)ccc1N1CCNCC1 [Compound 37, 2-(piperazin-1-yl)-5-(3-(quinolin-4-yl)pyrazolo[1,5-a]pyrimidin-6-yl)benzonitrile] | 24 nM
Cc1ccc2c(-c3cnn4cc(-c5ccc(O[C@H]6CCNC6)cn5)cnc34)cccc2n1 [Compound 66, (S)-2-methyl-5-(6-(5-(pyrrolidin-3-yloxy)pyridin-2-yl)pyrazolo[1,5-a]pyrimidin-3-yl)quinoline] | 102 nM
OCCNCc1ccc2c(-c3cnn4cc(-c5ccc(N6CCNCC6)cc5)cnc34)ccnc2c1 [Compound 14, 2-(((4-(6-(4-(piperazin-1-yl)phenyl)pyrazolo[1,5-a]pyrimidin-3-yl)quinolin-7-yl)methyl)amino)ethanol] | 517 nM
NC(=O)c1ccc2c(-c3cnn4cc(-c5ccc(N6CCNCC6)cc5)cnc34)ccnc2c1 [Compound 15, 4-(6-(4-(piperazin-1-yl)phenyl)pyrazolo[1,5-a]pyrimidin-3-yl)quinoline-7-carboxamide] | 127 nM

Structure (SMILES) | IC50
N#Cc1cc(-c2cnc3c(-c4cccc5ncccc45)cnn3c2)ccc1N1CCNCC1 [Compound 38] | 47 nM
Cc1ccc2c(-c3cnn4cc(-c5ccc(OCCN6CCNCC6)cn5)cnc34)cccc2n1 [Compound 50, 2-methyl-5-(6-(5-(2-(piperazin-1-yl)ethoxy)pyridin-2-yl)pyrazolo[1,5-a]pyrimidin-3-yl)quinoline] | 643 nM
c1cc(-c2cnn3cc(-c4ccc(OCCN5CCCCC5)nc4)cnc23)c2cccnc2c1 [Compound 29, 5-(6-(6-(2-(piperidin-1-yl)ethoxy)pyridin-3-yl)pyrazolo[1,5-a]pyrimidin-3-yl)quinoline] | 127 nM
Clc1cc(-c2cnn3cc(-c4ccc(N5CCNCC5)cc4)cnc23)c2ccccc2n1 [Compound 8, 2-chloro-4-(6-(4-(piperazin-1-yl)phenyl)pyrazolo[1,5-a]pyrimidin-3-yl)quinoline] | 24 nM
Fc1cc(-c2cnc3c(-c4ccnc5ccccc45)cnn3c2)ccc1N1CCNCC1 [Compound 39] | 15 nM
Nc1ccc2c(-c3cnn4cc(-c5ccc(N6CCNCC6)cc5)cnc34)ccnc2c1 [Compound 27, 4-(6-(4-(piperazin-1-yl)phenyl)pyrazolo[1,5-a]pyrimidin-3-yl)quinolin-7-amine] | 44 nM
c1cc(-c2cnn3cc(-c4ccc(N5CCNCC5)cc4)cnc23)c2ccc(CN3CCCC3)cc2n1 [Compound 21, 4-(6-(4-(piperazin-1-yl)phenyl)pyrazolo[1,5-a]pyrimidin-3-yl)-7-(pyrrolidin-1-ylmethyl)quinoline] | 2140 nM
c1ccc2c(-c3cnn4cc(-c5ccc(N6CCNCC6)nc5)cnc34)ccnc2c1 [compound 1, 4-(6-(6-(piperazin-1-yl)pyridin-3-yl)pyrazolo[1,5-a]pyrimidin-3-yl)quinoline] | 29 nM
c1ccc2c(-c3cnn4cc(-c5ccc(N6CCNCC6)cn5)cnc34)ccnc2c1 [Compound 3] | 16 nM
Cc1ccc2c(-c3cnn4cc(-c5ccc(N6[C@H](C)CNC[C@@H]6C)cc5)cnc34)cccc2n1 [Compound 54, 5-(6-(4-((2R,6S)-2,6-dimethylpiperazin-1-yl)phenyl)pyrazolo[1,5-a]pyrimidin-3-yl)-2-methylquinoline] | 32 nM
CN(C)Cc1ccc2c(-c3cnn4cc(-c5ccc(N6CCNCC6)cc5)cnc34)ccnc2c1 [Compound 19, N,N-dimethyl-1-(4-(6-(4-(piperazin-1-yl)phenyl)pyrazolo[1,5-a]pyrimidin-3-yl)quinolin-7-yl)methanamine] | 407 nM
Cc1ccc2c(-c3cnn4cc(-c5ccc(OC6CCN(C)CC6)cn5)cnc34)cccc2n1 [Compound 60, 2-methyl-5-(6-(5-((1-methylpiperidin-4-yl)oxy)pyridin-2-yl)pyrazolo[1,5-a]pyrimidin-3-yl)quinoline] | 155 nM
c1ccc2c(-c3cnn4cc(-c5cnc(N6CCNCC6)nc5)cnc34)ccnc2c1 [Compound 5, 4-(6-(2-(piperazin-1-yl)pyrimidin-5-yl)pyrazolo[1,5-a]pyrimidin-3-yl)quinoline] | 103 nM
Clc1cc(-c2cnc3c(-c4cccc5ncccc45)cnn3c2)ccc1OCCN1CCCCC1 [Compound 46] | 16 nM
CC(C)(CN1CCCCC1)Oc1ccc(-c2cnc3c(-c4cccc5ncccc45)cnn3c2)cc1 [Compound 32, 5-(6-(4-((2-methyl-1-(piperidin-1-yl)propan-2-yl)oxy)phenyl)pyrazolo[1,5-a]pyrimidin-3-yl)quinoline] | 106 nM
Clc1cc(-c2cnc3c(-c4ccnc5ccccc45)cnn3c2)ccc1OCCN1CCCCC1 [Compound 45, 4-(6-(3-chloro-4-(2-(piperidin-1-yl)ethoxy)phenyl)pyrazolo[1,5-a]pyrimidin-3-yl)quinoline] | 56 nM
CN1CCN(CCOc2ccc(-c3cnc4c(-c5cccc6ncccc56)cnn4c3)cn2)CC1 [Compound 44, 5-(6-(6-(2-(4-methylpiperazin-1-yl)ethoxy)pyridin-3-yl)pyrazolo[1,5-a]pyrimidin-3-yl)quinoline] | 17 nM
c1cc(-c2cnn3cc(-c4ccc(OCCN5CCNCC5)nc4)cnc23)c2cccnc2c1 [Compound 42, 5-(6-(6-(2-(piperazin-1-yl)ethoxy)pyridin-3-yl)pyrazolo[1,5-a]pyrimidin-3-yl)quinoline] | 14 nM

Same assay, conditions: read-out: potency in ALK2 LANCE assay

Structure (SMILES) | IC50
O=c1cc(-c2cnn3cc(-c4ccc(N5CCNCC5)cc4)cnc23)c2ccccc2[nH]1 [M422c, 4-(6-(4-(piperazin-1-yl)phenyl)pyrazolo[1,5-a]pyrimidin-3-yl)quinolin-2(1H)-one] | 800 nM
